We go through 1 substance from patent US20020115059A1, “Drug screening system” (priority 2000, published 2002).

The test has as its system mouse ES cells. In words: In vitro hepatic differentiation of ES cells (EBs): marker mRNA expression by RT-PCR / real-time PCR. In kind it is cell-based. As to conditions: EBs on collagen coated dishes, factors of individual stages, Day 18. The protocol:
Cell Culture—The ES cell lines R1 (129Sv strain), W9.5 (129Sv), and SEK1 null (established from W9.5) (Ganiatsas et al., (1998) Proc. Natl. Acad. Sci. USA 95, 6881-6) were maintained undifferentiated in gelatin-coated dishes in DMEM (GIBCO BRL, Grand Island, N.Y.) containing 15% fetal bovine serum (Atlanta biologicals, Norcross, Ga.), 2 mM L-glutamine, 100 units/ml penicilin, 100 μg/ml streptomycin, 25 mM Hepes (GIBCO BRL), 300 μM monothioglycerol (Sigma, St. Louis, Mo.), and 250 unit/ml recombinant mouse LIF (ESGRO, CHEMICON, Temecula, Calif.). To induce differentiation, ES cells were suspended in IMDM containing 2 mM L-glutamine, 100 units/ml penicillin, 100 μg/ml streptomycin (GIBCO BRL), 20% fetal bovine serum (Atlanta biologicals) and 300 μM monothioglycerol (Sigma). Cells were cultured for 2 days by the hanging-drop method (1×10^3 ES cells per 30 μl in each drop) (Metzger et al., (1994) J. Cell. Biol. 126, 701-11). EBs in hanging drops were transferred to suspension culture in 100-mm petri dishes and cultured for an additional 3 days. […]
For each gene, the DNA primers were originated from different exons to ensure that the PCR product represented the specific mRNA species and not genomic DNA. Relative quantitation of albumin gene was performed by ABIPRISM5700 sequence detection system and SYBR green PCR master mix (PE Biosystems, Foster City, Calif.). […]
A general note: Real-time PCR tracks product formation cycle by cycle.

With hepatocyte growth factor [HGF], the “G6P expression (FIG. 5a)” value is listed as “critical”.
